Assay results taken from patent US20060004004A1, “Novel gamma secretase inhibitors” (Schering Corporation, priority 2004, published 2006).
“And” between values parts separate entries of the source, which are not always exact repeats. Equal entries are not always repeated. Where two headings read alike, the source gives them in different places.

Target: T1, γ-secretase (Homo sapiens, UniProt P49768)
T1 construct: endogenous in cells; host or cells: membranes of 293 cells (T-REx, clone pTRE.15) with tetracycline-induced SPC99-Lon
Assay: Gamma secretase activity, membrane assay with Aβ 40 / Aβ 42 ECL immunoassay (Zhang et al.)
Assay type: biochemical
From the text: Antibodies W02, G2-10, and G2-11 were obtained from Dr. Konrad Beyreuther (University of Heidelberg, Heidelberg, Germany). W02 recognizes residues 5-8 of Aβ peptide, while G2-10 and G2-11 recognize the specific C-terminal structure of Aβ 40 and Aβ 42, respectively. Biotin-4G8 was purchased from Senetec (St. Louis, Mo.). All tissue culture reagents used in this work were from Life Technologies, Inc., unless otherwise specified. Pepstatin A was purchased from Roche Molecular Biochemicals; DFK167 was from Enzyme Systems Products (Livermore, Calif.).
Upon insertion into the membrane, the 17 amino acid signal peptide is processed, leaving an additional leucine at the N-terminus of Aβ. SPC99-lon was cloned into the pcDNA4/TO vector (Invitrogen) and transfected into 293 cells stably transfected with pcDNA6/TR, which is provided in the T-REX system (Invitrogen). The transfected cells were selected in Dulbecco's modified Eagle's media (DMEM) supplemented with 10% fetal bovine serum, 100 units/mL penicillin, 100 µg/mL streptomycin, 250 µg/mL zeocin, and 5 µg/mL blasticidin (Invitrogen). Colonies were screened for Aβ production by inducing C99 expression with […] tetracycline for 16-20 h and analyzing conditioned media with a sandwich immunoassay (see below). One of the clones, designated as pTRE.15, was used in these studies.
C99 expression in cells was induced with […] tetracycline for 20 h. The cells were pretreated with […] 12-myristate 13-acetate (PMA) and […] brefeldin A (BFA) for 5-6 h at 37° C. before harvesting. The cells were washed 3 times with cold phosphate-buffered saline (PBS) and harvested in buffer A containing 20 mM Hepes (pH 7.5), 250 mM sucrose, 50 mM KCl, 2 mM EDTA, 2 mM EGTA, and Complete protease inhibitor tablets (Roche Molecular Biochemicals). The cell pellets were flash-frozen in liquid nitrogen and stored at −70° C. before use.
To make membranes, the cells were resuspended in buffer A and lysed in a nitrogen bomb at 600 psi. The cell lysate was centrifuged at 1500 g for 10 min to remove nuclei and large cell debris. The supernatant was centrifuged at 100000 g for 1 h. The membrane pellet was resuspended in buffer A plus 0.5 M NaCl, and the membranes were collected by centrifugation at 200000 g for 1 h. The salt-washed membrane pellet was washed again in buffer A and centrifuged at 100000 g for 1 h. The final membrane pellet was resuspended in a small volume of buffer A using a Teflon-glass homogenizer. The protein concentration was determined, and membrane aliquots were flash-frozen in liquid nitrogen and stored at −70° C.
γ-Secretase Reaction and Aβ Analysis To measure γ-secretase activity, membranes were incubated at 37° C. for 1 h in […] of buffer containing 20 mM Hepes (pH 7.0) and 2 mM EDTA. At the end of the incubation, Aβ 40 and Aβ 42 were measured using an electrochemiluminescence (ECL)-based immunoassay. Aβ 40 was identified with antibody pairs TAG-G2-10 and biotin-W02, while Aβ 42 was identified with TAG-G2-11 and biotin-4G8. The ECL signal was measured using an ECL-M8 instrument (IGEN International, Inc.) according to the manufacturer's instructions. The data presented were the means of the duplicate or triplicate measurements in each experiment.

[1] = same membrane assay, ranges given as 'about', read-out: IC50 values within the range
[2] = membranes of 293 cells expressing SPC99-Lon (clone pTRE.15), 37° C., 1 h, read-out: IC50 (μM), γ-secretase inhibitory activity

In the case of `O=C(N1C[C@@H](N2CCCCC2)C[C@@H]1CO)C1([C@H]2CCC[C@@H](c3cc(F)cc(F)c3)N2S(=O)(=O)c2ccc(Cl)cc2)CC1` [Example 17], the IC50 [1] is reported as 0.001 to 0.2 µM.

In the case of `CCC1(O)CC2CCC(C1)N2C(=O)CC1([C@H]2C[C@@H](O)C[C@@H](C3CC3)N2S(=O)(=O)c2ccc(Cl)cc2)CC1` (some centres unmarked) [Example 48], the IC50 [2] is reported as 0.0048 µM and the IC50 [1] is reported as 0.001 to 0.02 µM and 0.001 to 0.2 µM.

In the case of `O=S(=O)(CC1([C@H]2CCC[C@@H](c3cc(F)cc(F)c3)N2S(=O)(=O)c2ccc(Cl)cc2)CC1)N1CCC(N2CCOCC2)CC1` [Example 24], the IC50 [2] is reported as 0.0145 µM and the IC50 [1] is reported as 0.001 to 0.2 µM and 0.001 to 0.02 µM.

Compound `O=C(N1CCC(N2CCCCC2)CC1)C1([C@H]2CCC[C@@H](c3cc(F)cc(F)c3)N2S(=O)(=O)c2ccc(Cl)cc2)CC1` [Example 9] has an IC50 [1] of 0.001 to 0.2 µM.

In the case of `CCC1(O)CC2CCC(C1)N2C(=O)C(O)C1([C@H]2CCC[C@@H](c3cc(F)cc(F)c3)N2S(=O)(=O)c2ccc(Cl)cc2)CC1` (some centres unmarked) [Example 29], the IC50 [2] is reported as 0.0068 µM and the IC50 [1] is reported as 0.001 to 0.2 µM and 0.001 to 0.02 µM.

With `O=C(CC1(C2CCCC(c3cc(F)cc(F)c3)N2S(=O)(=O)c2ccc(Cl)cc2)CC1)N1CCC(N2CCCCC2)CC1` (centres unmarked) [Example 4] the IC50 [2] was 0.0014 µM and the IC50 [1] was 0.001 to 0.2 µM and 0.001 to 0.02 µM.

With `O=C(CC1(C2CCCC(c3cc(F)cc(F)c3)N2S(=O)(=O)c2ccc(Cl)cc2)CC1)N1CCCCC1` (centres unmarked) [Example 2] the IC50 [2] was 0.0164 µM and the IC50 [1] was 0.001 to 0.2 µM and 0.001 to 0.02 µM.

In the case of `O=S(=O)(CC1([C@H]2CCC[C@@H](c3cc(F)cc(F)c3)N2S(=O)(=O)c2ccc(Cl)cc2)CC1)N1CCC[C@H]1CO` [Example 22], the IC50 [2] is reported as 0.0164 µM and the IC50 [1] is reported as 0.001 to 0.2 µM and 0.001 to 0.02 µM.

With `O=S(=O)(CC1([C@H]2CCC[C@@H](c3cc(F)cc(F)c3)N2S(=O)(=O)c2ccc(Cl)cc2)CC1)N1CC[C@H](O)C1` [Example 20] the IC50 [2] was 0.0151 µM and the IC50 [1] was 0.001 to 0.2 µM and 0.001 to 0.02 µM.

`O=C(N1CCCC1)C1([C@H]2CCC[C@@H](c3cc(F)cc(F)c3)N2S(=O)(=O)c2ccc(Cl)cc2)CC1` [Example 8] gave an IC50 [1] of 0.001 to 0.2 µM.

For `O=S(=O)(CC1([C@H]2CCC[C@@H](c3cc(F)cc(F)c3)N2S(=O)(=O)c2ccc(Cl)cc2)CC1)N1CCN(CCO)CC1` [Example 23], the IC50 [2] was 0.0124 µM and the IC50 [1] was 0.001 to 0.2 µM and 0.001 to 0.02 µM.

`O=C(CC1([C@@H]2CCC[C@H](c3cc(F)cc(F)c3)N2S(=O)(=O)c2ccc(Cl)cc2)CC1)N1CCN(CCO)CC1` [Example 1] was tested, and the IC50 [2] was 0.0028 µM and the IC50 [1] was 0.001 to 0.2 µM and 0.001 to 0.02 µM.

For `CCC1(OC)CC2CCC(C1)N2C(=O)C(O)C1([C@H]2CCC[C@@H](c3cc(F)cc(F)c3)N2S(=O)(=O)c2ccc(Cl)cc2)CC1` (some centres unmarked) [Example 28], the IC50 [1] was 0.001 to 0.2 µM and 0.001 to 0.02 µM.

In the case of `O=C(CC1(C2CCCC(c3cc(F)cc(F)c3)N2S(=O)(=O)c2ccc(Cl)cc2)CC1)N1CC[C@H](O)C1` (some centres unmarked) [Example 3], the IC50 [2] is reported as 0.0132 µM and the IC50 [1] is reported as 0.001 to 0.2 µM and 0.001 to 0.02 µM.

With `O=C(N1CCN(CCO)CC1)C1([C@H]2CCC[C@@H](c3cc(F)cc(F)c3)N2S(=O)(=O)c2ccc(Cl)cc2)CC1` [Example 10] the IC50 [1] was 0.001 to 0.2 µM.

Compound `O=C(N1CCC[C@H]1CO)C1([C@H]2CCC[C@@H](c3cc(F)cc(F)c3)N2S(=O)(=O)c2ccc(Cl)cc2)CC1` [Example 7] has an IC50 [1] of 0.001 to 0.2 µM.

With `CN1CCN(S(=O)(=O)CC2([C@H]3CCC[C@@H](c4cc(F)cc(F)c4)N3S(=O)(=O)c3ccc(Cl)cc3)CC2)CC1` [Example 21] the IC50 [2] was 0.0117 µM and the IC50 [1] was 0.001 to 0.2 µM and 0.001 to 0.02 µM.

With `O=C(CC1([C@H]2C[C@@H](O)C[C@@H](C3CC3)N2S(=O)(=O)c2ccc(Cl)cc2)CC1)N1CCC(N2CCCCC2)CC1` [Example 46] the IC50 [1] was 0.001 to 0.02 µM and 0.001 to 0.2 µM.

In the case of `O=C(CC1([C@H]2C[C@@H](O)C[C@@H](C3CC3)N2S(=O)(=O)c2ccc(Cl)cc2)CC1)N1CC[C@@H](O)C1` [Example 47], the IC50 [1] is reported as 0.001 to 0.2 µM.

`O=C(CC1([C@H]2CCC[C@@H](C3CC3)N2S(=O)(=O)c2ccc(Cl)cc2)CC1)N1CCN2CCCC2C1` (some centres unmarked) [Example 44] was tested, and the IC50 [1] was 0.001 to 0.2 µM.

`O=C(C(O)C1([C@H]2CCC[C@@H](c3cc(F)cc(F)c3)N2S(=O)(=O)c2ccc(Cl)cc2)CC1)N1CCC[C@H]1CO` (some centres unmarked) [Example 26] gave an IC50 [1] of 0.001 to 0.2 µM.

In the case of `C[C@@H]1CN(CCO)CCN1C(=O)C1([C@H]2CCC[C@@H](c3cc(F)cc(F)c3)N2S(=O)(=O)c2ccc(Cl)cc2)CC1` [Example 11], the IC50 [1] is reported as 0.001 to 0.2 µM.

In the case of `O=C(CC1([C@H]2CCC[C@@H](c3cc(F)cc(F)c3)N2S(=O)(=O)c2ccc(Cl)cc2)CC1)N1CCC[C@H]1CO` [Example 5], the IC50 [2] is reported as 0.0196 µM and the IC50 [1] is reported as 0.001 to 0.2 µM and 0.001 to 0.02 µM.

`O=C(C(O)C1([C@H]2CCC[C@@H](c3cc(F)cc(F)c3)N2S(=O)(=O)c2ccc(Cl)cc2)CC1)N1CCC(N2CCCCC2)CC1` (some centres unmarked) [Example 25] was tested, and the IC50 [2] was 0.0049 µM and the IC50 [1] was 0.001 to 0.2 µM and 0.001 to 0.02 µM.

`O=S(=O)(CC1([C@@H]2CCC[C@H](c3cc(F)cc(F)c3)N2S(=O)(=O)c2ccc(Cl)cc2)CC1)N1CCC(N2CCCCC2)CC1` [Example 19] was tested, and the IC50 [2] was 0.0119 µM and the IC50 [1] was 0.001 to 0.2 µM and 0.001 to 0.02 µM.

With `O=C(CC1([C@H]2CCC[C@@H](c3cc(F)cc(F)c3)N2S(=O)(=O)c2ccc(Cl)cc2)CC1)N1CCCC1` [Example 6] the IC50 [1] was 0.001 to 0.2 µM.

`O=C(C(O)C1([C@H]2CCC[C@@H](c3cc(F)cc(F)c3)N2S(=O)(=O)c2ccc(Cl)cc2)CC1)N1CC[C@H](O)C1` (some centres unmarked) [Example 27] showed an IC50 [1] of 0.001 to 0.2 µM.
